How the values were obtained:
[1] = molecular target: T1, 3',5'-cyclic-AMP phosphodiesterase 4B (Homo sapiens, UniProt Q07343); assay: Inhibition of recombinant human PDE4B2 preincubated for 30 mins followed by [3H]cyclic AMP addition and measured after 20 mins by radiometric assay
[2] = molecular target: 3',5'-cyclic-AMP phosphodiesterase 4A (Homo sapiens, UniProt P27815); assay: Inhibition of PDE4A (unknown origin) at 2 uM relative to control
[3] = molecular target: T2, High affinity 3',5'-cyclic-AMP phosphodiesterase 7A (Homo sapiens, UniProt Q13946); assay: Inhibition of human PDE7A at 2 uM relative to control
T2 sequence (Q13946 whole entry): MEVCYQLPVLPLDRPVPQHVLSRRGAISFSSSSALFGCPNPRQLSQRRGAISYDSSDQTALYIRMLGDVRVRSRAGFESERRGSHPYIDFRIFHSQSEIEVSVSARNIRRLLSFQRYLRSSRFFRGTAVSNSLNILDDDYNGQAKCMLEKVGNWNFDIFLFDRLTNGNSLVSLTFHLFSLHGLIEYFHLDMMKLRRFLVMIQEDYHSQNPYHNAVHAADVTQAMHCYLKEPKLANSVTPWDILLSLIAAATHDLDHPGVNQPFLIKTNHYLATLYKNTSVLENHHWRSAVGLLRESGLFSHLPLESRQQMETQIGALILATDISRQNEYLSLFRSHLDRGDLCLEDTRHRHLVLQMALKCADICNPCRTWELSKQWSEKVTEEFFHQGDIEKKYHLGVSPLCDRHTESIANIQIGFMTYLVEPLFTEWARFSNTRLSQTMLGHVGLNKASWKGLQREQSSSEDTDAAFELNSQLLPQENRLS

[4] = molecular target: 3',5'-cyclic-AMP phosphodiesterase 4D (Homo sapiens, UniProt Q08499); assay: Inhibition of PDE4D (unknown origin) at 2 uM relative to control
3',5'-cyclic-AMP phosphodiesterase 4D, sequence (Q08499 whole entry): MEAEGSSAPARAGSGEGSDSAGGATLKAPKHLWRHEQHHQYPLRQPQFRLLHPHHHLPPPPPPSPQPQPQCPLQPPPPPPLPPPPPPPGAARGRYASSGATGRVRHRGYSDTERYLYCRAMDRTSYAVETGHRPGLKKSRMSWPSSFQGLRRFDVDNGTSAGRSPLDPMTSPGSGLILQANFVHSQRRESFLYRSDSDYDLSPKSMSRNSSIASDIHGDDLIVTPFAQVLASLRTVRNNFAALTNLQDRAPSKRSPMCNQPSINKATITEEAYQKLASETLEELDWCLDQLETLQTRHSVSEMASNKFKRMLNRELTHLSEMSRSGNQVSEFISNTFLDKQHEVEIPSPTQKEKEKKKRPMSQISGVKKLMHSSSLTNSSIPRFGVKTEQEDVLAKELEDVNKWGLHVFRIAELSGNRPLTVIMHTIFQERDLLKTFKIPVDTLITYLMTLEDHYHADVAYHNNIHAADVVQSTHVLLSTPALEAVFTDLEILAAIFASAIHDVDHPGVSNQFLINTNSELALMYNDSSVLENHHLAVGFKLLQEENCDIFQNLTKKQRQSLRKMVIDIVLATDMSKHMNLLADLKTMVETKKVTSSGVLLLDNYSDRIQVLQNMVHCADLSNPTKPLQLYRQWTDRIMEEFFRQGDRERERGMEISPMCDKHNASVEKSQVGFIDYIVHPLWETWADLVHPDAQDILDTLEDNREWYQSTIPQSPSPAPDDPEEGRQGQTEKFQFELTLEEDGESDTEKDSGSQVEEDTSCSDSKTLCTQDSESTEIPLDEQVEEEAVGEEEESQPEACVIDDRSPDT

[5] = molecular target: T1, 3',5'-cyclic-AMP phosphodiesterase 4B; assay: Inhibition of PDE4B (unknown origin) at 2 uM relative to control
Phosphodiesterase 4 [6] = molecular target: T3, Phosphodiesterase 4 (Homo sapiens, UniProt P27815+Q08499+Q07343+Q08493); assay: Inhibition of PDE4 in human U937 cell lysate using cAMP as substrate by LANCE assay; format: subcellular; details: u-937
[7] = molecular target: T1, 3',5'-cyclic-AMP phosphodiesterase 4B; assay: Inhibition of N-terminal GST tagged full length human PDE4B2 expressed in baculovirus infected Sf9 cell expression system using cAMP as substrate incubated for 60 mins by time-resolved fluorescence competitive immunoassay
[8] = molecular target: 3',5'-cyclic-AMP phosphodiesterase 4C (Homo sapiens, UniProt Q08493); assay: Inhibition of N-terminal GST tagged full length human PDE4C1 expressed in baculovirus infected Sf9 cell expression system using cAMP as substrate incubated for 60 mins by time-resolved fluorescence competitive immunoassay
3',5'-cyclic-AMP phosphodiesterase 4C, sequence (Q08493 whole entry): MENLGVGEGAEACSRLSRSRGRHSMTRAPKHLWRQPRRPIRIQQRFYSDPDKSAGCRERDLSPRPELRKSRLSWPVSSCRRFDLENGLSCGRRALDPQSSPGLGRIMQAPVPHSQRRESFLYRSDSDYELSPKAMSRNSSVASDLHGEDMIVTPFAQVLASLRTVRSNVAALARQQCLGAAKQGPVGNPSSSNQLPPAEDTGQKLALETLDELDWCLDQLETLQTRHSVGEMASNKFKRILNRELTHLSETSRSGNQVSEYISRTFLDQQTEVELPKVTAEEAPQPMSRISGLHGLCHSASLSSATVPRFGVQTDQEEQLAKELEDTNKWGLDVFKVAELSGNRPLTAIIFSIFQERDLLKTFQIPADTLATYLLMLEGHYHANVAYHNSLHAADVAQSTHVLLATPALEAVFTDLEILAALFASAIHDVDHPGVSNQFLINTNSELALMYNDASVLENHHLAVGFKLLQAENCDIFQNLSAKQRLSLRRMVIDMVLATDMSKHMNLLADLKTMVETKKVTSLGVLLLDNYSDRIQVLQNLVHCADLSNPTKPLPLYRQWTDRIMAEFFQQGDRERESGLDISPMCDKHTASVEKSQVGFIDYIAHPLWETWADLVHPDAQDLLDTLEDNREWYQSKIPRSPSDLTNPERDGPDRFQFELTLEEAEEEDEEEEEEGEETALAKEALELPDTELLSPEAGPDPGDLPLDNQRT

Phosphodiesterase 4 [9] = molecular target: T3, Phosphodiesterase 4; assay: Inhibition of PDE4 (unknown origin); format: protein assay
[10] = molecular target: T1, 3',5'-cyclic-AMP phosphodiesterase 4B; assay: Inhibition of PDE4B (unknown origin)
[11] = molecular target: Mitogen-activated protein kinase 14 (Homo sapiens, UniProt Q16539); assay: Inhibition of P38 alpha MAPK (unknown origin)
Mitogen-activated protein kinase 14, sequence (Q16539 whole entry): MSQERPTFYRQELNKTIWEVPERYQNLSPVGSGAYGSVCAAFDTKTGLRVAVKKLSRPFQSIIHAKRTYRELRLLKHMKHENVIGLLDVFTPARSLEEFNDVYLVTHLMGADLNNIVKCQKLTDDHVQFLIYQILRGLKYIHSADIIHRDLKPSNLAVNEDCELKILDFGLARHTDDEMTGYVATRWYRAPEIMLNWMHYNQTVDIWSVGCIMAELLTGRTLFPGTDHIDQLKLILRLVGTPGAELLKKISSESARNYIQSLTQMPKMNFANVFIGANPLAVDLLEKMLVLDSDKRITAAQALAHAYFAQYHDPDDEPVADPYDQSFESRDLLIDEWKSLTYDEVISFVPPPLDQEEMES

[12] = molecular target: Mitogen-activated protein kinase 10 (Homo sapiens, UniProt P53779); assay: Inhibition of JNK3 (unknown origin)
Mitogen-activated protein kinase 10, sequence (P53779 whole entry): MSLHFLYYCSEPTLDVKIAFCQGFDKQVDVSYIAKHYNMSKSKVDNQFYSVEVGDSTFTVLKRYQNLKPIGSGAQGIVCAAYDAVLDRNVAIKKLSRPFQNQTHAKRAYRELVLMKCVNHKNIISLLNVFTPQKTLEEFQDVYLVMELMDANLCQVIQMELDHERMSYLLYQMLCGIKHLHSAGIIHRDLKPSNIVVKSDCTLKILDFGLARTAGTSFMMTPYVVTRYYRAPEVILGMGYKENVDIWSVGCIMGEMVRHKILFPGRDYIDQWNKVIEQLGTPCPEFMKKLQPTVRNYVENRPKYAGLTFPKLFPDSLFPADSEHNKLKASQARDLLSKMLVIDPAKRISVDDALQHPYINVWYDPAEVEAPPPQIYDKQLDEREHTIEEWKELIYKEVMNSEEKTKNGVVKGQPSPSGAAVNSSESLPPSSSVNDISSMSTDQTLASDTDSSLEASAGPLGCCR

[13] = Induction of FEV1 in COPD patient at 18 ug/kg administered as single dose; format: functional, Homo sapiens; details: dose 18 µg/kg
Phosphodiesterase 4 [14] = molecular target: T3, Phosphodiesterase 4; assay: Inhibition of human PDE4 using [3H]cAMP as substrate incubated for 30 mins; format: protein assay
Phosphodiesterase 4 [15] = molecular target: T3, Phosphodiesterase 4; assay: Inhibition of human U-937 cell derived PDE4 using [3H]-cAMP or [3H]-cGMP as substrate incubated for 60 mins by scintillation proximity assay; format: protein assay
[16] = Inhibition of PDE4B2B (152 to 528 residues) (unknown origin) by liquid scintillation counting method; design: species or system Homo sapiens
[17] = Inhibition of bovine aorta cytosolic PDE4 using cyclic AMP as substrate by liquid scintillation counting; design: species or system Bos taurus
[18] = molecular target: T1, 3',5'-cyclic-AMP phosphodiesterase 4B; assay: Inhibition of human PDE4B2 expressed in HEK293 cells using cAMP as substrate incubated for 45 to 60 mins by ELISA
[19] = molecular target: T2, High affinity 3',5'-cyclic-AMP phosphodiesterase 7A; assay: Inhibition of human PDE7A expressed in HEK293 cells using cAMP as substrate incubated for 60 mins by ELISA
[20] = molecular target: T1, 3',5'-cyclic-AMP phosphodiesterase 4B; assay: Inhibition of human brain PDE4B catalytic domain using cAMP as substrate incubated for 1 hr by luminescence method
Phosphodiesterase 4 [21] = molecular target: T3, Phosphodiesterase 4; assay: Inhibition of PDE4 (unknown origin) expressed in Saccharomyces cerevisiae using [3H] cAMP as substrate incubated for 1 hr by scintillation proximity assay
[22] = Inhibition of recombinant human PDE4B2B (1 to 564 residues) expressed in Saccharomyces cerevisiae using cAMP as substrate preincubated for 30 mins followed by cAMP addition and measured after 60 mins by luminescence method
Phosphodiesterase 4 [23] = molecular target: T3, Phosphodiesterase 4; assay: Inhibition of human U937 cell derived PDE4 using [3H]cAMP as substrate incubated for 60 mins by Scintillation proximity assay; format: protein assay
[24] = Inhibition of recombinant human His-tagged PDE7 expressed in baculovirus infected in sf9 cells incubated for 60 mins by Scintillation counting method

T1 sequence (Q07343 whole entry): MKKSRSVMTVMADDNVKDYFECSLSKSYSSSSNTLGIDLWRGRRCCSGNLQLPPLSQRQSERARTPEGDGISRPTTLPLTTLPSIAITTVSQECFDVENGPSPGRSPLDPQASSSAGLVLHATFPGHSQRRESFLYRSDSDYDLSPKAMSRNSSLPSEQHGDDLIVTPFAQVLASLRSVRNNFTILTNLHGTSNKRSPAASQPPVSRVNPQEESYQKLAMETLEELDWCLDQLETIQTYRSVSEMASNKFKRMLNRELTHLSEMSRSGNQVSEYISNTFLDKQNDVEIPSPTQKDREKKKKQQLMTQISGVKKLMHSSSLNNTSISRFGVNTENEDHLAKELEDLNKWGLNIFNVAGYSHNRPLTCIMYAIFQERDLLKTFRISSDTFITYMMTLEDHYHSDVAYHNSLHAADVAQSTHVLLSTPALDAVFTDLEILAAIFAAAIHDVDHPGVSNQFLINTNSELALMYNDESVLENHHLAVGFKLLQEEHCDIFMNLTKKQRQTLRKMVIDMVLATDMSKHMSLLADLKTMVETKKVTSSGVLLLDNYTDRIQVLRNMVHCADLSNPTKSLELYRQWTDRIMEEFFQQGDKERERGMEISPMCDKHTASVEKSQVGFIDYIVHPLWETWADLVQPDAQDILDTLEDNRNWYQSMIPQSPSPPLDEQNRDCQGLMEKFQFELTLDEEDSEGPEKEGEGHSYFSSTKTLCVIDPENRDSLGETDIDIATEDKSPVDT
3',5'-cyclic-AMP phosphodiesterase 4A, sequence (P27815 whole entry): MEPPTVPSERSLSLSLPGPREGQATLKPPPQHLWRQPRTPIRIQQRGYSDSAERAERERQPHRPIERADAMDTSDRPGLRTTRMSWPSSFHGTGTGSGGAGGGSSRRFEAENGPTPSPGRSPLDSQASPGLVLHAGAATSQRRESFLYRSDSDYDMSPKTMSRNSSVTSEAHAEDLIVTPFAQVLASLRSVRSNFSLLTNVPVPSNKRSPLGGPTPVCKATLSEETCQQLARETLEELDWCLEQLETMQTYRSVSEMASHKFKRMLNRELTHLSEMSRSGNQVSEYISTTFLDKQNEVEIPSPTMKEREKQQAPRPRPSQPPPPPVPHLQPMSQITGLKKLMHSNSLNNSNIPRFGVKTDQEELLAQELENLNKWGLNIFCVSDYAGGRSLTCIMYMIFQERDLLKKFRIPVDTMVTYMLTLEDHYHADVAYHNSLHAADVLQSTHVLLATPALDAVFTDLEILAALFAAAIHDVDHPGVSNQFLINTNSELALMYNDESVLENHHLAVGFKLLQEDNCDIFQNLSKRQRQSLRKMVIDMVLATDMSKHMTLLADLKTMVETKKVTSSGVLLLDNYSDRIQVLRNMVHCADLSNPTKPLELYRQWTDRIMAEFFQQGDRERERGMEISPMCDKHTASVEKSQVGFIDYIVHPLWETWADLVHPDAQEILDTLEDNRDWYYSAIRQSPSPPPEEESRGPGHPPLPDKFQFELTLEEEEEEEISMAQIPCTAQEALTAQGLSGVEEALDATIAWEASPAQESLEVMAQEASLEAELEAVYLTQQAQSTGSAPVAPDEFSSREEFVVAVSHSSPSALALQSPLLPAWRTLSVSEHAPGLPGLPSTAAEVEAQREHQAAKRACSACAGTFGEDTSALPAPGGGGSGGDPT

Cn1nc(C(=O)NC2CCC(NC(=O)c3cc(F)cnc3Oc3cccc(-c4ccc(CCCN5CCNCC5)cc4)c3)CC2)cc1C(F)(F)F (centres undefined)
IC50 [1]: 0.01 nM

Cc1c(C(=O)Nc2ccc(F)cc2F)sc2ncnc(N3CCN(C)CC3)c12
inhibition [2]: 64%
inhibition [3]: 98%
inhibition [4]: 64%
inhibition [5]: 64%

CS(=O)(=O)Nc1ccc(C(=O)O[C@@H](Cc2c(Cl)c[n+]([O-])cc2Cl)c2ccc(OC(F)F)c(OCC3CC3)c2)cc1OCC1CC1
IC50 (Phosphodiesterase 4 [6]): 0.026 nM

CCOc1cc([C@H](CS(C)(=O)=O)N2C(=O)c3cccc(NC(=O)OCCOCCOCCOC)c3C2=O)ccc1OC
IC50 [7]: 3 nM
IC50 [8]: 3 nM

CCOc1cc([C@H](CS(C)(=O)=O)N2C(=O)c3cccc(NC(=O)OCCOCCOCCOCCOCCOCCOCCOC)c3C2=O)ccc1OC
IC50 [7]: 3 nM
IC50 [8]: 3 nM

O=C(NC1CC1)c1cn(-c2cccc(-c3ccc([C@@H]4C[C@H]4C(=O)O)c(F)c3)c2)c2ncccc2c1=O
IC50 (Phosphodiesterase 4 [9]): 0.6 nM

CC(=O)Nc1ccc(-c2c(-c3ccc(F)cc3)nc([S+](C)[O-])n2C)cn1 (centres undefined)
IC50 [10]: 200 nM
IC50 [11]: 500 nM
IC50 [12]: 700 nM

CCOc1cc([C@H](CS(C)(=O)=O)N2C(=O)c3cccc(NC(=O)OCCOCCOCCOCCOCCOCCOCCOCCOC)c3C2=O)ccc1OC
IC50 [7]: 3 nM
IC50 [8]: 3 nM

COc1cc2c(cc1OC)-c1c/c(=N\c3c(C)cc(C)cc3C)n(CCNC(N)=O)c(=O)n1CC2 [ENSIFENTRINE]
Activity [13]: >15%

COc1ccc(C2=CNC(=O)N(Cc3nc4cccc(C#N)c4o3)C2)cc1OC1CCCC1
IC50 (Phosphodiesterase 4 [14]): 12 nM

CNc1nc(-c2cccc(NC(=O)c3ccc(C(=O)OC)cc3)c2)c2cc(OC)c(OC)cc2n1 [LOTAMILAST]
IC50 (Phosphodiesterase 4 [15]): 2.8 nM

CC(C)CC(=O)c1ccc(OC(F)F)c(OC2CCOC2)c1 (centres undefined)
IC50 [16]: 20 nM

CCOc1cc2c(cc1OCC)C(c1ccc(CCCN3CCN(c4ccc(Cl)cc4)CC3)cc1)=NCC(=O)N2
IC50 [17]: 40 nM

CCc1nc2c(cnn2CC)c(NC2CCCCC2)c1C1=NOC2(C1)CC(C1N=NN=N1)C2 (centres undefined)
IC50 [18]: 5 nM
IC50 [19]: 55 nM

CC(C)Nc1nccc(-c2c(C3CC3)nn3ccccc23)n1
IC50 [20]: 1200 nM

CCOc1cc([C@H](CS(C)(=O)=O)N2C(=O)c3cccc(NC(=O)OCCOCCOCCOCCOCCOCCOC)c3C2=O)ccc1OC
IC50 [7]: 3 nM
IC50 [8]: 3 nM

CCNC(=O)c1cc(C(=O)NCCCN(C)C)cc(-c2cc(NC(=O)Nc3c(Cl)cncc3Cl)c(=O)n(CC)n2)c1
IC50 (Phosphodiesterase 4 [21]): 0.05 nM

CCOc1cc([C@H](CS(C)(=O)=O)N2C(=O)c3cccc(NC(=O)OCCOCCOCCOCCOC)c3C2=O)ccc1OC
IC50 [7]: 3 nM
IC50 [8]: 3 nM

CCn1ncc2c(NC3CCOCC3)c(-c3nnc(Cc4sc(C)nc4C)o3)cnc21
pIC50 [22]: 8.8

O=C(Nc1c(Cl)c[n+]([O-])cc1Cl)c1ccc(OC(F)F)c2oc3ccncc3c12
IC50 (Phosphodiesterase 4 [9]): 3 nM

O=C(Nc1c(Cl)cncc1Cl)C(=O)c1cn(Cc2ccc(F)cc2)c2ncccc12 [ELBIMILAST]
IC50 (Phosphodiesterase 4 [9]): 3 nM

CCOc1ccc(-c2c(C(C)(C)O)oc(=O)c3ccccc23)cc1OC1CCCC1
IC50 (Phosphodiesterase 4 [23]): 2900 nM
IC50 [24]: 1400 nM

From ChEMBL document CHEMBL4725222, “Advances in the Development of Phosphodiesterase-4 Inhibitors” (J Med Chem, 2020)
